Assay results taken from article PMC5131915, “Platinum(II) Iodido Complexes of 7-Azaindoles with Significant Antiproliferative Effects: An Old Story Revisited with Unexpected Outcomes” (PLoS ONE, 2016).

What was measured:
[1] = system: cisplatin-sensitive HCT116 colon cancer cell line; set-up: method as in PMID 26226326; settings: cited from earlier work
[2] = system: cisplatin-resistant HCT116 colon cancer cell line; set-up: method as in PMID 26226326; settings: cited from earlier work
[3] = Hydrophobicity studies (logP determination), octanol/water, ICP-MS; format: physicochemical; settings: octanol/water (0.2 M KI)
Protocol: Complexes 4 and 6 (1 mmol) were ultrasonicated for 15 min in 10 mL of OSW, centrifuged and supernatants were collected. Aliquots (5 mL) of the obtained OSW solutions of complexes 4 and 6 were added to WSO (5 mL) and shaken for 2 h at ambient temperature. After that, the mixtures were centrifuged and aqueous layer was separated carefully. The platinum concentration was determined from OSW aliquots taken before ([Pt]OSWb) and after ([Pt]OSWa) partition by ICP-MS (ICP-MS spectrometer 7700x, Agilent) with the obtained values corrected for the adsorption effects. logP = log([Pt]WSO/[Pt]OSWa) equation was used for the partition coefficients calculation; [Pt]WSO = [Pt]OSWb−[Pt]OSWa. The experiments were conducted in triplicate.

[4] = system: p53; assay: Ex vivo Western blot of tumour tissues, p53; format: in vivo, mice; settings: pooled tumour samples
Protocol: (§1) Frozen tumour samples were homogenized by a bench blender IKA DI25 (IKA-Werke, Germany) in the presence of a lysis buffer [cOmplete Protease Inhibitor Cocktail (Roche, Germany), 50 mM Tris-HCl pH 7.5, 1 mM EGTA, 1 mM EDTA, 1 mM sodium orthovanadate, 50 mM sodium fluoride, 5 mM sodium pyrophosphate, 270 mM sucrose, 0.5% (v/v) Triton X-100]. Subsequently, the blended samples were centrifuged at 9.000 g at 4°C for 15 min. The supernatants were collected and the protein concentration was measured by the Brandford’s method using the Brandford reagent (Amresco, USA) according to the manufacturer’s manual. The measured samples were stored at -80°C for the following experiments.
(§2) The expression of caspase 3, MCL-1, p53, and β-actin as loading control were evaluated by Western blot analysis and immunodetection. Lysates were mixed with a denaturing loading dye [250 mM Tris-HCl pH 6.8, 5% (v/v) β-mercaptoethanol, 10% (w/v) sodium dodecyl sulfate, 30% (v/v) glycerol, 0.04% (w/v) bromophenol blue], heated for 5 min at 70°C. To eliminate intra-species variability, and to obtain the same amount of proteins from all experimental groups, all samples from one group of animals were pooled together and loaded onto a 15% polyacrylamide denaturing gel. The final protein amount was 50 μg per well. After protein separation in the gel, they were transferred on the Immun-Blot polyvinylidene difluoride membrane 0.2 μm (Bio-Rad, USA). Then, the membrane was blocked by 5% (w/v) BSA in TBST [10 mM Tris-HCl pH 7.5, 150 mM NaCl, 0.1% (v/v) Tween-20]. […] HRP was detected by Clarity Western ECL Substrate (Bio-Rad, USA) using chemiluminescent documentation system Syngene PXi-4 (UK).

[5] = system: MCL-1L (37 kDa); assay: Ex vivo Western blot of tumour tissues, MCL-1L; format: in vivo, mice; settings: pooled tumour samples
Protocol: as §1, §2

[6] = Hydrolytic stability by 1H NMR; format: physicochemical; settings: 20% DMF-d7/80% D2O, after 48 h

Structure (SMILES) | IC50 [1] | IC50 [2] | logP [3] | p53 level in tumour tissue [4] | MCL-1L level in tumour tissue [5] | fraction of complex hydrolyzed [6]
N.N.[Cl][Pt][Cl] [Cisplatin, cisplatin, reference compound] | 7.6 µM | 22 µM |  |  |  | 
Brc1cc[n+]([Pt-2]([I])([I])[n+]2ccc(Br)c3cc[nH]c32)c2[nH]ccc12 [Complex 6, cis-[Pt(4Braza)2I2]] |  |  | –0.07 | did not affect | negligible effect | ~10%
Cc1cc2c(Cl)cc[n+]([Pt-2]([I])([I])[n+]3ccc(Cl)c4cc(C)[nH]c43)c2[nH]1 [Complex 8, cis-[PtI2(2Me4Claza)2]] |  |  |  | attenuated | considerably increased | 
